Results published in ChEMBL document CHEMBL1641507, “The effect of structural differences in the reducing terminus of sugars on the binding affinity of carbohydrates and proteins analyzed using photoaffinity labeling” (Bioorg Med Chem, 2011).
Calls of active or inactive are those of the source.

Tests used:
Lectin (Glycine max) [1] = biological target: Lectin (Glycine max) (UniProt P05046); test: Binding affinity to soybean lectin assessed as compound-protein complex formation incubated for 30 mins followed by UV irradiation by SDS-PAGE based photoaffinity labeling
Lectin (Glycine max), sequence (P05046 whole entry): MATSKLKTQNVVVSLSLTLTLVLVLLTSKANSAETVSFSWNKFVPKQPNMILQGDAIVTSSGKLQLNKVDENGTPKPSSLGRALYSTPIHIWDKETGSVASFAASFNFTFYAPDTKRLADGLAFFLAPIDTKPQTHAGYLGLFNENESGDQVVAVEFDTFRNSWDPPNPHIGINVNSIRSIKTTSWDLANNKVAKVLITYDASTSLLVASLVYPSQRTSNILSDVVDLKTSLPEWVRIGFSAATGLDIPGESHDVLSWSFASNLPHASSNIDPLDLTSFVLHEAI

[2] = biological target: T1, Lectin (Erythrina crista-galli) (UniProt P83410); test: Binding affinity to Erythrina cristagalli lectin assessed as compound-protein complex formation incubated for 30 mins followed by UV irradiation by SDS-PAGE based photoaffinity labeling
T1 sequence (whole entry): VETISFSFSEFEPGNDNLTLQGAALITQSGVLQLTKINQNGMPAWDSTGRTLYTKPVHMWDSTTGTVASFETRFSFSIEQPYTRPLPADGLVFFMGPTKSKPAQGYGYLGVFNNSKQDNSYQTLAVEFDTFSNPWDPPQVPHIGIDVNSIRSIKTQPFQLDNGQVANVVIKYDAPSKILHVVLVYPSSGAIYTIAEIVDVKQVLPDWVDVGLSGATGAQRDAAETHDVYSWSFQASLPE

Lectin (Glycine max) [3] = biological target: Lectin (Glycine max) (UniProt P05046); test: Binding affinity to soybean lectin assessed as compound-protein complex formation incubated for 30 mins followed by UV irradiation by SDS-PAGE based photoaffinity labeling in presence of lactose
[4] = biological target: T1, Lectin (Erythrina crista-galli); test: Binding affinity to Erythrina cristagalli lectin assessed as compound-protein complex formation incubated for 30 mins followed by UV irradiation by SDS-PAGE based photoaffinity labeling in presence of lactose

Measured: Activity

O=C(CCCC[C@@H]1SC[C@H]2NC(=O)N[C@@H]12)NCCOCCOCCOc1cc(C2(C(F)(F)F)N=N2)ccc1CO/N=C/[C@@H](O)[C@@H](O)[C@H](O[C@@H]1O[C@H](CO)[C@H](O)[C@H](O)[C@H]1O)[C@H](O)CO
active: all assays above
